Data published in patent US11723359B2, “Disposable antimicrobial wipes and methods of making” (Ecolab USA Inc., priority 2015, dated 2023).

Experiments:
[1] = pH of citric acid and acetic acid at varying concentrations; assay type: physicochemical
Protocol: Wipes were prepared as described in Example 1 above. Citric acid at concentrations of Oppm, 500 ppm, 1000 ppm, 2000 and 4000 ppm were separately applied to the Tencel® substrates along with Bardac 205 quaternary ammonium. The wipes were prepared in duplicate. The organic acid and quaternary ammonium chemicals were added to the textile simultaneously. The following is a table showing the pH of citric acid and acetic acid at varying concentrations: […]

[2] = Squeeze method: expression of quaternary ammonium from treated Tencel wipes, quantified by HPLC; assay type: physicochemical; conditions: Example 3, FIG. 4, citric acid 0, 500, 1000, 2000, 4000 ppm with Bardac 205 on Tencel, 24 hours soak
Protocol: Wipes were prepared as described in Example 1 above. […] The wipes were prepared in duplicate. The organic acid and quaternary ammonium chemicals were added to the textile simultaneously.

Compound	pH ([1]; concentration 10 ppm)	pH ([1]; concentration 50 ppm)	pH ([1]; concentration 500 ppm)	release of dimethyl benzyl ammonium chloride from wipe [2]
O=C(O)CC(O)(CC(=O)O)C(=O)O [Citric Acid, citric acid]	2.48	2.58	2.65	–
CC(=O)O [Acetic Acid, acetic acid]	2.69	2.62	2.56	–
alkyl dimethyl benzyl ammonium chloride	–	–	–	As the citric acid concentration increased, the amount of quaternary ammonium released also increased
